From ChEMBL document CHEMBL5316350, “Novel Pyrido[2',1':2,3]imidazo[4,5-c]quinoline Derivative Selectively Poisons Leishmania donovani Bisubunit Topoisomerase 1 to Inhibit the Antimony-Resistant Leishmania Infection in Vivo” (J Med Chem, 2023)
pIC50: −log10 of the molar value. The source made the active and inactive calls. The rule behind the calls is not given here.

Tests used:
Leishmania donovani [1] = assay: Induction of apoptosis in antimony resistant Leishmania donovani BHU575 promastigotes at 5 uM measured after 6 to 24 hrs by FITC-Annexin V-based flow cytometric analysis; type: functional, organism-based; conditions: time 6-24 hrs
Leishmania donovani [2] = assay: Antileishmanial activity against antimony resistant Leishmania donovani BHU575 promastigotes infected in BALB/c mouse assessed as reduction of amastigote burden in spleen treated after 3 weeks of infection at 5 to 10 mg/kg, ip twice a week for 3 weeks by Giemsa staining stamp-smear based limiting dilution assay; type: functional, organism-based; conditions: dose 5-10 mg/kg
Leishmania donovani [3] = assay: Antileishmanial activity in Leishmania donovani BHU575 promastigotes assessed as TUNEL positive cells at 5 uM measured after 24 hrs by confocal microscopic analysis relative to control; type: functional
[4] = target: T1, DNA topoisomerase I (Leishmania donovani (strain BPK282A1)) (UniProt E9BRC0); assay: (§1) Inhibition of recombinant Top1 in Antimony resistant Leishmania donovani BHU575 whole cell extract assessed as relaxation of supercoiled pBluescript SK(+) DNA measured by agarose gel electrophoresis analysis; conditions: dose 5-50 µM
T1 sequence (whole entry): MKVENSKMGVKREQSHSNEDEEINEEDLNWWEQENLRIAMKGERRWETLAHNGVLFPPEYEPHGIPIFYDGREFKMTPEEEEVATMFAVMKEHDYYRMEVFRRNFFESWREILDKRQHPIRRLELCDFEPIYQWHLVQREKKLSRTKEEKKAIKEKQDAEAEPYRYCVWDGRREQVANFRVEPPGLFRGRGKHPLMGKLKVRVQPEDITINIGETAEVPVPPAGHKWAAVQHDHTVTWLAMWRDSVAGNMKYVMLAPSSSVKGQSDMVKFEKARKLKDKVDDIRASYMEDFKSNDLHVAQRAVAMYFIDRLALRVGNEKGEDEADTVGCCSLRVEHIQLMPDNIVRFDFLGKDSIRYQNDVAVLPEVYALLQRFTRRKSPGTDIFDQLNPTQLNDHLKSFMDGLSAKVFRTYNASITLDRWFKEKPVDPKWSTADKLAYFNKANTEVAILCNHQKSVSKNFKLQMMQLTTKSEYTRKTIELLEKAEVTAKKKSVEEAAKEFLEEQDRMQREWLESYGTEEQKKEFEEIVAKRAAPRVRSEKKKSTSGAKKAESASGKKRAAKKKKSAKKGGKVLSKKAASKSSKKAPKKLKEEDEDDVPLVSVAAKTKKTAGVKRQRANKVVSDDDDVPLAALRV

DNA topoisomerase I [5] = target: T2, DNA topoisomerase I (Leishmania donovani (strain BPK282A1), UniProt E9BRC0); assay: as §1
T2 sequence (E9BRC0 whole entry): T1 sequence (whole entry)

[6] = target: T1, DNA topoisomerase I (Leishmania donovani (strain BPK282A1)); assay: Potency index, ratio of Camptothecin IC50 to compound IC50 for inhibition of Leishmania donovani Top1 assessed as relaxation of supercoiled pBluescript SK(+) DNA measured by agarose gel electrophoresis analysis
Leishmania donovani [7] = assay: Induction of cell cycle arrest in antimony resistant Leishmania donovani BHU575 promastigotes assessed as decrease in accumulation of cells in G2/M phase at 5 uM measured after 24 hrs by PI staining based flow cytometry (reference value: 8.8%); type: functional; design: scale not given: the % may be the effect or the level left
Leishmania donovani [8] = assay: Induction of apoptosis in Leishmania donovani Ag83 promastigotes assessed as early apoptotic cells measured at 5 uM after 6 hrs by Annexin V-FITC/PI staining based flow cytometric analysis (reference value: 0.00%); type: functional
HEK293 = assay: Potency index ratio of test compound IC50 to camptothecin IC50 for cytotoxicity against HEK293 cells; type: functional, Homo sapiens
Leishmania donovani [9] = assay: Induction of apoptosis in Leishmania donovani Ag83 promastigotes assessed as DNA break accumulation measured at 5 uM after 15 mins by TUNEL staining based assay; type: functional, organism-based
Leishmania donovani [10] = assay: Induction of apoptosis in Leishmania donovani Ag83 promastigotes assessed as late apoptotic cells measured at 5 uM after 6 hrs by Annexin V-FITC/PI staining based flow cytometric analysis (reference value: 0.1%); type: functional
Leishmania donovani [11] = assay: (§2) Antileishmanial activity against Leishmania donovani Ag83 promastigotes infected in BALB/c mouse assessed as reduction of amastigote burden by measuring parasite count in spleen treated after 3 weeks of infection at 5 to 10 mg/kg, ip twice a week for 3 weeks by qPCR based kineto-plastid DNA; type: functional, organism-based; conditions: dose 5-10 mg/kg
Leishmania donovani [12] = assay: Induction of apoptosis in Leishmania donovani Ag83 promastigotes assessed as necrotic cells measured at 5 uM after 24 hrs by Annexin V-FITC/PI staining based flow cytometric analysis (reference value: 0.5%); type: functional
Leishmania donovani [13] = assay: Induction of cell cycle arrest in antimony resistant Leishmania donovani BHU575 promastigotes assessed as decrease in accumulation of cells in G2/M phase at 5 uM measured after 6 hrs by PI staining based flow cytometry (reference value: 8.8%); type: functional; design: scale not given: the % may be the effect or the level left
Leishmania donovani [14] = assay: Antileishmanial activity against Leishmania donovani Ag83 promastigotes infected in BALB/c mouse model of visceral leishmaniasis assessed as T-helper type 2 immunological evoke response in splenocytes by measuring decrease in IL-4 level treated after 3 weeks of infection at 5 to 10 mg/kg, ip twice a week for 3 weeks by RT-PCR analysis; type: functional, organism-based; conditions: dose 5-10 mg/kg
DNA topoisomerase I [15] = target: T2, DNA topoisomerase I; assay: Inhibition of Leishmania donovani Top1 assessed as relaxation of supercoiled pBluescript SK(+) DNA measured by agarose gel electrophoresis analysis
Leishmania donovani [16] = assay: Induction of apoptosis in Leishmania donovani Ag83 promastigotes assessed as necrotic cells measured at 5 uM after 6 hrs by Annexin V-FITC/PI staining based flow cytometric analysis (reference value: 0.5%); type: functional
Leishmania donovani [17] = assay: as §2, with “against antimony resistant” for “against”, “BHU575” for “Ag83”, “blood” for “spleen”; type: functional, organism-based; conditions: dose 5-10 mg/kg
Leishmania donovani [18] = assay: Antileishmanial activity against Leishmania donovani Ag83 promastigotes infected in BALB/c mouse assessed as reduction of amastigote burden by measuring parasite count in liver treated after 3 weeks of infection at 5 to 10 mg/kg, ip twice a week for 3 weeks by qPCR based kineto-plastid DNA; type: functional, organism-based; conditions: dose 5-10 mg/kg
Leishmania donovani [19] = assay: Induction of cell cycle arrest in antimony resistant Leishmania donovani BHU575 promastigotes assessed as decrease in accumulation of cells in G0/G1 phase at 5 uM measured after 6 hrs by PI staining based flow cytometry (reference value: 80.7%); type: functional; design: scale not given: the % may be the effect or the level left
Leishmania donovani [20] = assay: Induction of cell cycle arrest in Leishmania donovani Ag83 promastigotes assessed as decrease in accumulation of cells in G0/G1 phase at 5 uM measured after 6 hrs by PI staining based flow cytometry (reference value: 65.1%); type: functional; design: scale not given: the % may be the effect or the level left
Leishmania donovani [21] = assay: Induction of cell cycle arrest in antimony resistant Leishmania donovani BHU575 promastigotes assessed as decrease in accumulation of cells in S phase at 5 uM measured after 12 hrs by PI staining based flow cytometry (reference value: 9.8%); type: functional; design: scale not given: the % may be the effect or the level left
Leishmania donovani [22] = assay: Induction of cell cycle arrest in antimony resistant Leishmania donovani BHU575 promastigotes assessed as decrease in accumulation of cells in G0/G1 phase at 5 uM measured after 24 hrs by PI staining based flow cytometry (reference value: 80.7%); type: functional; design: scale not given: the % may be the effect or the level left
Leishmania donovani [23] = assay: Induction of cell cycle arrest in Leishmania donovani Ag83 promastigotes assessed as accumulation of cells in S/G2 phase at 5 uM by PI staining based flow cytometry; type: functional, organism-based; conditions: time 6-24 hrs
Leishmania donovani [24] = assay: Antileishmanial activity against antimony resistant Leishmania donovani BHU575 promastigotes infected in BALB/c mouse assessed as reduction of macrophage at 1 to 10 uM infection by propidium iodide staining analysis; type: functional, organism-based; conditions: dose 1-10 µM, time 72-96 hrs, TDE = time-dependent effect

COc1cc(-c2nc3ccccc3c3nc4ccccn4c23)cc(OC)c1OC
Activity (Leishmania donovani [1]): Active | Activity (Leishmania donovani [2]): Active | Activity (Leishmania donovani [3]): 85% | inhibition [4]: Dose-Dependent Effect | pIC50 (DNA topoisomerase I [5]): 5.06 | Ratio IC50 [6]: 2.5 | Activity (Leishmania donovani [7]): 33.6% | Activity (Leishmania donovani [8]): 18.7% | Ratio IC50 (HEK293): 90 | Activity (Leishmania donovani [9]): Active | Activity (Leishmania donovani [10]): 52.5% | Activity (Leishmania donovani [11]): Active | Activity (Leishmania donovani [12]): 23.1% | Activity (Leishmania donovani [13]): 2.6% | Activity (Leishmania donovani [14]): Active | pIC50 (DNA topoisomerase I [15]): 5.43 | Activity (Leishmania donovani [16]): 23.9% | Activity (Leishmania donovani [17]): Active | Activity (Leishmania donovani [18]): Active | Activity (Leishmania donovani [19]): 70.8% | Activity (Leishmania donovani [20]): 55.3% | Activity (Leishmania donovani [21]): 23.7% | Activity (Leishmania donovani [22]): 38% | Activity (Leishmania donovani [23]): Dose-Dependent Effect | Activity (Leishmania donovani [24]): Tde
